{
  "source": "PubChem BioAssay (NCI)",
  "assay_in_all_cases": "NCI-60 cell line screen, 48 h",
  "key": {"[1]": {"tested_on": "HCT-116 colon"}, "[2]": {"tested_on": "OVCAR-4 ovarian"}, "[3]": {"tested_on": "NCI-H226 lung"}, "[4]": {"tested_on": "A549 NSCLC"}, "[5]": {"tested_on": "SF-268 CNS"}, "[6]": {"tested_on": "SF-539 CNS"}, "[7]": {"tested_on": "786-0 renal"}, "[8]": {"tested_on": "MALME-3M melanoma"}, "[9]": {"tested_on": "NCI-H460 lung"}, "[10]": {"tested_on": "HOP-92 NSCLC"}, "[11]": {"tested_on": "SK-OV-3 ovarian"}, "[12]": {"tested_on": "KM12 colon"}, "[13]": {"tested_on": "SN12C renal"}, "[14]": {"tested_on": "HT29 colon"}, "[15]": {"tested_on": "SK-MEL-2 melanoma"}, "[16]": {"tested_on": "HCT-15 colon"}, "[17]": {"tested_on": "SNB-19 CNS"}, "[18]": {"tested_on": "U251 CNS"}, "[19]": {"tested_on": "IGROV1 ovarian"}, "[20]": {"tested_on": "MOLT-4 leukemia"}, "[21]": {"tested_on": "A498 renal"}, "[22]": {"tested_on": "LOX IMVI melanoma"}, "[23]": {"tested_on": "K-562 leukemia"}, "[24]": {"tested_on": "SK-MEL-5 melanoma"}, "[25]": {"tested_on": "SK-MEL-28 melanoma"}, "[26]": {"tested_on": "CAKI-1 renal"}, "[27]": {"tested_on": "SF-295 CNS"}, "[28]": {"tested_on": "KM20L2 colon"}, "[29]": {"tested_on": "M14 melanoma"}, "[30]": {"tested_on": "NCI-H23 lung"}, "[31]": {"tested_on": "ACHN renal"}, "[32]": {"tested_on": "HOP-62 NSCLC"}, "[33]": {"tested_on": "OVCAR-3 ovarian"}, "[34]": {"tested_on": "SNB-75 CNS"}, "[35]": {"tested_on": "OVCAR-5 ovarian"}, "[36]": {"tested_on": "COLO 205 colon"}, "[37]": {"tested_on": "OVCAR-8 ovarian"}, "[38]": {"tested_on": "UACC-62 melanoma"}, "[39]": {"tested_on": "UO-31 renal"}, "[40]": {"tested_on": "UACC-257 melanoma"}, "[41]": {"tested_on": "EKVX NSCLC"}, "[42]": {"tested_on": "RPMI-8226 leukemia"}, "[43]": {"tested_on": "SW-620 colon"}, "[44]": {"tested_on": "NCI-H522 lung"}, "[45]": {"tested_on": "HCC-2998 colon"}, "[46]": {"tested_on": "HL-60(TB) leukemia"}, "[47]": {"tested_on": "TK-10 renal"}},
  "note": "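All cell lines were grown in 96-well plates and treated with compound for 48 hours. GI50: concentration for 50% inhibition of growth. Definition used: TGI = concentration required for complete inhibition of growth.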",
  "data": [
    {"smiles": "CC(=O)[O-].CC(=O)[O-].O=C([CH-]C(=O)c1ccccc1)c1ccccc1.[Nd+3].[OH3+]", "values": [
      {"measurement": "GI50", "setting": "[1]", "value": 19.7, "unit": "µM"},
      {"measurement": "TGI", "setting": "[1]", "value": "> 100", "unit": "µM"},
      {"measurement": "GI50", "setting": "[2]", "value": 27, "unit": "µM"},
      {"measurement": "TGI", "setting": "[2]", "value": "> 100", "unit": "µM"},
      {"measurement": "GI50", "setting": "[3]", "value": 13.8, "unit": "µM"},
      {"measurement": "TGI", "setting": "[3]", "value": 60.6, "unit": "µM"},
      {"measurement": "GI50", "setting": "[4]", "value": 28.2, "unit": "µM"},
      {"measurement": "TGI", "setting": "[4]", "value": 84.3, "unit": "µM"},
      {"measurement": "GI50", "setting": "[5]", "value": 16.8, "unit": "µM"},
      {"measurement": "TGI", "setting": "[5]", "value": "> 100", "unit": "µM"},
      {"measurement": "GI50", "setting": "[6]", "value": 31.6, "unit": "µM"},
      {"measurement": "TGI", "setting": "[6]", "value": 93.5, "unit": "µM"},
      {"measurement": "GI50", "setting": "[7]", "value": 19.4, "unit": "µM"},
      {"measurement": "TGI", "setting": "[7]", "value": 63.9, "unit": "µM"},
      {"measurement": "GI50", "setting": "[8]", "value": 26.1, "unit": "µM"},
      {"measurement": "TGI", "setting": "[8]", "value": 85.2, "unit": "µM"},
      {"measurement": "GI50", "setting": "[9]", "value": 16.7, "unit": "µM"},
      {"measurement": "TGI", "setting": "[9]", "value": "> 100", "unit": "µM"},
      {"measurement": "GI50", "setting": "[10]", "value": 20.1, "unit": "µM"},
      {"measurement": "TGI", "setting": "[10]", "value": 63.8, "unit": "µM"},
      {"measurement": "GI50", "setting": "[11]", "value": 27, "unit": "µM"},
      {"measurement": "TGI", "setting": "[11]", "value": 90.5, "unit": "µM"},
      {"measurement": "GI50", "setting": "[12]", "value": 14, "unit": "µM"},
      {"measurement": "TGI", "setting": "[12]", "value": "> 100", "unit": "µM"},
      {"measurement": "GI50", "setting": "[13]", "value": 23.5, "unit": "µM"},
      {"measurement": "TGI", "setting": "[13]", "value": 92.3, "unit": "µM"},
      {"measurement": "GI50", "setting": "[14]", "value": 20.9, "unit": "µM"},
      {"measurement": "TGI", "setting": "[14]", "value": 89.6, "unit": "µM"},
      {"measurement": "GI50", "setting": "[15]", "value": 16.4, "unit": "µM"},
      {"measurement": "TGI", "setting": "[15]", "value": 50.7, "unit": "µM"},
      {"measurement": "GI50", "setting": "[16]", "value": 19.4, "unit": "µM"},
      {"measurement": "TGI", "setting": "[16]", "value": "> 100", "unit": "µM"},
      {"measurement": "GI50", "setting": "[17]", "value": 30.1, "unit": "µM"},
      {"measurement": "TGI", "setting": "[17]", "value": "> 100", "unit": "µM"},
      {"measurement": "GI50", "setting": "[18]", "value": 16.7, "unit": "µM"},
      {"measurement": "TGI", "setting": "[18]", "value": "> 100", "unit": "µM"},
      {"measurement": "GI50", "setting": "[19]", "value": 28.5, "unit": "µM"},
      {"measurement": "TGI", "setting": "[19]", "value": "> 100", "unit": "µM"},
      {"measurement": "GI50", "setting": "[20]", "value": 10.6, "unit": "µM"},
      {"measurement": "TGI", "setting": "[20]", "value": "> 100", "unit": "µM"},
      {"measurement": "GI50", "setting": "[21]", "value": 43.1, "unit": "µM"},
      {"measurement": "TGI", "setting": "[21]", "value": "> 100", "unit": "µM"},
      {"measurement": "GI50", "setting": "[22]", "value": 22.4, "unit": "µM"},
      {"measurement": "TGI", "setting": "[22]", "value": "> 100", "unit": "µM"},
      {"measurement": "GI50", "setting": "[23]", "value": 7.26, "unit": "µM"},
      {"measurement": "TGI", "setting": "[23]", "value": "> 100", "unit": "µM"},
      {"measurement": "GI50", "setting": "[24]", "value": 14.5, "unit": "µM"},
      {"measurement": "TGI", "setting": "[24]", "value": 33.9, "unit": "µM"},
      {"measurement": "GI50", "setting": "[25]", "value": 23.3, "unit": "µM"},
      {"measurement": "TGI", "setting": "[25]", "value": 81.2, "unit": "µM"},
      {"measurement": "GI50", "setting": "[26]", "value": 27.9, "unit": "µM"},
      {"measurement": "TGI", "setting": "[26]", "value": 91.3, "unit": "µM"},
      {"measurement": "GI50", "setting": "[27]", "value": 10.7, "unit": "µM"},
      {"measurement": "TGI", "setting": "[27]", "value": 35.2, "unit": "µM"},
      {"measurement": "GI50", "setting": "[28]", "value": 30.5, "unit": "µM"},
      {"measurement": "TGI", "setting": "[28]", "value": "> 100", "unit": "µM"},
      {"measurement": "GI50", "setting": "[29]", "value": 20.7, "unit": "µM"},
      {"measurement": "TGI", "setting": "[29]", "value": 53, "unit": "µM"},
      {"measurement": "GI50", "setting": "[30]", "value": 18.7, "unit": "µM"},
      {"measurement": "TGI", "setting": "[30]", "value": 57.7, "unit": "µM"},
      {"measurement": "GI50", "setting": "[31]", "value": 31.3, "unit": "µM"},
      {"measurement": "TGI", "setting": "[31]", "value": "> 100", "unit": "µM"},
      {"measurement": "GI50", "setting": "[32]", "value": 14.7, "unit": "µM"},
      {"measurement": "TGI", "setting": "[32]", "value": 73.6, "unit": "µM"},
      {"measurement": "GI50", "setting": "[33]", "value": 10.7, "unit": "µM"},
      {"measurement": "TGI", "setting": "[33]", "value": 33.5, "unit": "µM"},
      {"measurement": "GI50", "setting": "[34]", "value": 6.24, "unit": "µM"},
      {"measurement": "TGI", "setting": "[34]", "value": 32.9, "unit": "µM"},
      {"measurement": "GI50", "setting": "[35]", "value": 68.4, "unit": "µM"},
      {"measurement": "TGI", "setting": "[35]", "value": "> 100", "unit": "µM"},
      {"measurement": "GI50", "setting": "[36]", "value": 27.9, "unit": "µM"},
      {"measurement": "TGI", "setting": "[36]", "value": "> 100", "unit": "µM"},
      {"measurement": "GI50", "setting": "[37]", "value": 15.8, "unit": "µM"},
      {"measurement": "TGI", "setting": "[37]", "value": "> 100", "unit": "µM"},
      {"measurement": "GI50", "setting": "[38]", "value": 16.5, "unit": "µM"},
      {"measurement": "TGI", "setting": "[38]", "value": 48.6, "unit": "µM"},
      {"measurement": "GI50", "setting": "[39]", "value": 17, "unit": "µM"},
      {"measurement": "TGI", "setting": "[39]", "value": 49.3, "unit": "µM"},
      {"measurement": "GI50", "setting": "[40]", "value": 17.9, "unit": "µM"},
      {"measurement": "TGI", "setting": "[40]", "value": 54.9, "unit": "µM"},
      {"measurement": "GI50", "setting": "[41]", "value": 24.5, "unit": "µM"},
      {"measurement": "TGI", "setting": "[41]", "value": 76.5, "unit": "µM"},
      {"measurement": "GI50", "setting": "[42]", "value": 22.8, "unit": "µM"},
      {"measurement": "TGI", "setting": "[42]", "value": "> 100", "unit": "µM"},
      {"measurement": "GI50", "setting": "[43]", "value": 16.3, "unit": "µM"},
      {"measurement": "TGI", "setting": "[43]", "value": "> 100", "unit": "µM"},
      {"measurement": "GI50", "setting": "[44]", "value": 13.2, "unit": "µM"},
      {"measurement": "TGI", "setting": "[44]", "value": 43.6, "unit": "µM"},
      {"measurement": "GI50", "setting": "[45]", "value": 25, "unit": "µM"},
      {"measurement": "TGI", "setting": "[45]", "value": "> 100", "unit": "µM"},
      {"measurement": "GI50", "setting": "[46]", "value": 7.85, "unit": "µM"},
      {"measurement": "TGI", "setting": "[46]", "value": 31.8, "unit": "µM"},
      {"measurement": "GI50", "setting": "[47]", "value": 27, "unit": "µM"},
      {"measurement": "TGI", "setting": "[47]", "value": 87.6, "unit": "µM"}
    ]}
  ]
}
